In ChEMBL document CHEMBL2396615 (Bioorg Med Chem Lett, 2013):

What was measured:
[1] = target: T1, Bifunctional epoxide hydrolase 2 (Homo sapiens, UniProt P34913); assay: Inhibition of human recombinant soluble epoxide hydrolase using (cyano(6-methoxy-naphthelen-2-yl)methyl trans-[(3-phenyl-oxiran-2-yl)methyl] carbonate) as substrate preincubated for 5 mins prior to substrate addition by fluorescence assay
T1 sequence (P34913 whole entry): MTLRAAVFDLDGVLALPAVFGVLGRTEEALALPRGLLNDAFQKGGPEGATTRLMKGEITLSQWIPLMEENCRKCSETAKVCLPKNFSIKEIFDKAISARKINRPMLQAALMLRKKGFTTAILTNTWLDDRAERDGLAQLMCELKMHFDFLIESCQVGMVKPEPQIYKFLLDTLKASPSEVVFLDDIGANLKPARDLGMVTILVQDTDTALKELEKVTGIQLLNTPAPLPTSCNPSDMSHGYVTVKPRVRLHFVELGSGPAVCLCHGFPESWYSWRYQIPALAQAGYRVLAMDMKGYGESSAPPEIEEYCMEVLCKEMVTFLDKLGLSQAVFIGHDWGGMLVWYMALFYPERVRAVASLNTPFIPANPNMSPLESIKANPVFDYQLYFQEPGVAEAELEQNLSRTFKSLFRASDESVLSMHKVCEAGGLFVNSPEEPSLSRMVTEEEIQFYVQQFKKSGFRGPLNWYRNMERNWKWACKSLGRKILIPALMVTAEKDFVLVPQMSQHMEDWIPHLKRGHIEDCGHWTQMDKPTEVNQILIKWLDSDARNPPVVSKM

[2] = target: T1, Bifunctional epoxide hydrolase 2; assay: Competitive inhibition of human recombinant soluble epoxide hydrolase using [3H]-tDPPO as substrate

| Compound | IC50 [1] [nM] | Ki [2] [nM] |
| --- | --- | --- |
| CCCCCCCC[S+]([O-])CCCCCCCC | 1350 | – |
| O=c1c2ccccc2[se]n1-c1ccccc1 [EBSELEN] | 2200 | – |
| O=C(Nc1ccccc1)Nc1ccccc1 | 400 | – |
| C[C@]12CC[C@@H]3c4ccc(O)cc4C[C@@H](CCCCCCCCC[S+]([O-])CCCC(F)(F)C(F)(F)F)[C@H]3[C@@H]1CC[C@@H]2O (stereo partly specified) [FULVESTRANT] | 6 | 26 |
| [O-][S+](Cc1ccccc1)Cc1ccccc1 | 70000 | – |

More lines, main results first:

| IC50 [1] [nM] | Compound | Ki [2] [nM] |
| --- | --- | --- |
| > 100000 | CCCCCCCCS(=O)(=O)CCCCCCCC | – |
| > 100000 | CCCCCCCCC(=O)CCCCCCCC | – |
| > 100000 | CCCCCCCCSCCCCCCCC [DIOCTYLSULFANE] | – |
| 11000 | O=C(Cc1ccccc1)Nc1ccccc1 | – |
| 6800 | CCCCCCCC[S+]([O-])Cc1ccccc1 (stereo unspecified) | – |
